Legend:
Thromboxane-A synthase = molecular target: T1, Thromboxane-A synthase (Homo sapiens, UniProt P24557); assay: Inhibition of TXA2 synthetase from human platelets
T1 sequence (P24557 whole entry): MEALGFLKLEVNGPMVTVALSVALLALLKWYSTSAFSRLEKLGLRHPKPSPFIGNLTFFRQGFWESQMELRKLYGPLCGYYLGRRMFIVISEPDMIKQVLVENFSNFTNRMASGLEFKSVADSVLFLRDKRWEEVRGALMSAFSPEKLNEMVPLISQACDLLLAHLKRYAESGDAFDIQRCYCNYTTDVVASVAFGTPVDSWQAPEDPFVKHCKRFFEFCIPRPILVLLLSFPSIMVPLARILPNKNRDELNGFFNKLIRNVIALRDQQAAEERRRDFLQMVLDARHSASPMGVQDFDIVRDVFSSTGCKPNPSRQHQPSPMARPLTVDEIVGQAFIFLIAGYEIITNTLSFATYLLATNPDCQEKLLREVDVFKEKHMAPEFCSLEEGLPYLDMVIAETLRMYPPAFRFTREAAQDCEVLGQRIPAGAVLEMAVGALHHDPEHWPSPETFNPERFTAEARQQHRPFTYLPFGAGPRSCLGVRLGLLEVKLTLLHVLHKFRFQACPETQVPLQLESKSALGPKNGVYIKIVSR

[1] = molecular target: T2, Cytochrome P450 11B1, mitochondrial (Rattus norvegicus, UniProt P15393); assay: Inhibition of rat adrenal 11-beta-hydroxylase
T2 sequence (P15393 whole entry): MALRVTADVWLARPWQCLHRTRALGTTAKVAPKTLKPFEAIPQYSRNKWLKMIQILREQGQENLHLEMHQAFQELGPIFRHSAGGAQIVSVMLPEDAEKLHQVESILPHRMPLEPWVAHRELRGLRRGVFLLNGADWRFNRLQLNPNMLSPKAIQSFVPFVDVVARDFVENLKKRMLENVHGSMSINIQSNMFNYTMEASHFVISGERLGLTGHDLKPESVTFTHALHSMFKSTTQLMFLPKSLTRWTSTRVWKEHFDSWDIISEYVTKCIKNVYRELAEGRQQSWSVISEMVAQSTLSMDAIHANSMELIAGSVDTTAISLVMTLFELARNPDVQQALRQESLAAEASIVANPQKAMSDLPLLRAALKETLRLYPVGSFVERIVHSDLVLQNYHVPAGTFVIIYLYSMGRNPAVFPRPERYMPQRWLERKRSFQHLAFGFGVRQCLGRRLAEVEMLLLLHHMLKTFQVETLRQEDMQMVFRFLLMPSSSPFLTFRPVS

[2] = Ionisation constant in presence of acid; assay type: ADME
[3] = Ionisation constant in presence of base; assay type: ADME
Cyclooxygenase = molecular target: T3, Cyclooxygenase (Rattus norvegicus, UniProt P35355+Q63921); assay: Inhibition of cyclooxygenase from RBL-1 cells.; assay type: cell-based
T3 sequence (P35355 whole entry): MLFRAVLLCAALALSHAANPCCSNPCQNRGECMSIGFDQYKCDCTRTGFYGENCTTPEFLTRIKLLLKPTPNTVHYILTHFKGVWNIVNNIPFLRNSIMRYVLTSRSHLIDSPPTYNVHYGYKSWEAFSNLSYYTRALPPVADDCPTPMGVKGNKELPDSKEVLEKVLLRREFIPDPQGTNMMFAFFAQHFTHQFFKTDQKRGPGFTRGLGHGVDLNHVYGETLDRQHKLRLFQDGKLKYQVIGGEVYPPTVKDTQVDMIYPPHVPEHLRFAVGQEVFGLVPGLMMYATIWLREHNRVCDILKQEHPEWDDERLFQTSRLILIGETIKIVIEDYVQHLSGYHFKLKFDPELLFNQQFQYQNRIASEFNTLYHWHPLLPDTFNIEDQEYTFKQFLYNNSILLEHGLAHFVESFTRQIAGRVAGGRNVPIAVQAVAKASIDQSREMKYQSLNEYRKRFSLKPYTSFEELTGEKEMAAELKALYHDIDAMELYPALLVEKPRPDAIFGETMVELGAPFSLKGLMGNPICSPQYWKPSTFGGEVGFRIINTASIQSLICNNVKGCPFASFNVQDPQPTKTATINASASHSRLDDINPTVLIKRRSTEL
T3 sequence (Q63921 whole entry): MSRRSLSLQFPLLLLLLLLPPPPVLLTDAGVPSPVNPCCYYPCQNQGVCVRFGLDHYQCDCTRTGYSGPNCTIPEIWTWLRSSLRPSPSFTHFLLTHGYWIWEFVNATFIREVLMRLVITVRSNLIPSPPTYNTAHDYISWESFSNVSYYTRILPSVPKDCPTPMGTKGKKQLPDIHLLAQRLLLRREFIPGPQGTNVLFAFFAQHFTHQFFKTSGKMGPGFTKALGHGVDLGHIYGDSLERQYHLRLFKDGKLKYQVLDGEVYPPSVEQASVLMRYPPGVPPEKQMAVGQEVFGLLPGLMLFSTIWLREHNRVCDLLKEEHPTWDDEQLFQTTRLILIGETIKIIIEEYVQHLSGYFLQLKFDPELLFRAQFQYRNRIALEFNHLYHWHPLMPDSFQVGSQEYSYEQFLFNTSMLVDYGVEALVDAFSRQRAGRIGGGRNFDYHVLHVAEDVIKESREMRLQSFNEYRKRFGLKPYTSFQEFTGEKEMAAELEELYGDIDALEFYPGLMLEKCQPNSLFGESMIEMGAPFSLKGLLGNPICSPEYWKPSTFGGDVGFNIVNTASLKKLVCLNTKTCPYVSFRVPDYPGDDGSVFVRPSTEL

Row | SMILES | IC50 (Thromboxane-A synthase) [nM] | IC50 [1] [nM] | pKa [2] | pKa [3] | IC50 (Cyclooxygenase) [M]
1 | O=C(O)c1ccc2oc(Cn3ccnc3)cc2c1 | 12 |  |  |  | 
2 | O=C(O)c1ccc2cc(Cn3ccnc3)ccc2c1 | 34 |  |  |  | 
3 | Cc1c(Cn2ccnc2)sc2ccc(C(=O)O)cc12 | 17 | > 100000 | 3.82 | 6.58 | > 0.0002
4 | Cc1c(Cn2ccnc2)n(C)c2ccc(C(=O)O)cc12 | 32 |  | 4.08 | 6.32 | > 0.0002
5 | Cc1c(Cn2ccnc2)sc2cc(C(=O)O)ccc12 | 18 |  |  |  | > 0.0002
6 | CSc1c(Cn2ccnc2)sc2ccc(C(=O)O)cc12 | 43 |  |  |  | 
7 | O=C(O)c1ccc2sc(Cn3ccnc3)c(Br)c2c1 | 27 | > 100000 |  |  | 
8 | O=C(O)c1ccc2sc(Cn3ccnc3)cc2c1 | 15 | > 100000 | 3.9 | 6.34 | > 0.0002
9 | Cc1c(Cn2ccnc2)oc2ccc(C(=O)O)cc12 | 34 | 100000 | 3.91 | 6.08 | > 0.0002
10 | Cc1c(Cn2ccnc2)[nH]c2ccc(C(=O)O)cc12 | 37 |  |  |  | 
11 | O=C(O)c1ccc(OCCn2ccnc2)cc1 [DAZOXIBEN] |  | > 100000 |  |  | 
12 | O=C(O)c1cccc2cc(Cn3ccnc3)ccc12 | 71 |  |  |  | 
13 | O=C(O)c1ccc2c(Cl)c(Cn3ccnc3)sc2c1 | 40 |  |  |  | > 0.0002
14 | O=C(O)c1ccc2oc(Cn3ccnc3)c(Br)c2c1 | 30 |  |  |  | 
15 | O=C(O)c1ccc2sc(Cn3ccnc3)c(Cl)c2c1 | 22 |  |  |  | > 0.0002
16 | O=C(O)c1ccc2oc(Cn3ccnc3)c(Cl)c2c1 | 31 | > 100000 |  |  | > 0.0002

Source: ChEMBL document CHEMBL1123364, “Selective thromboxane synthetase inhibitors. 4. 2-(1H-imidazol-1-ylmethyl) carboxylic acids of benzo[b]furan, benzo[b]thiophene, indole, and naphthalene” (J Med Chem, 1986)
